Some test systems named below: HCT-15; HOP-62; HOP-92; IGROV-1; Malme-3M; NCI-H23; NCI-H522; OVCAR-3; RPMI-8226; RXF 393; SF-295; SF-539; SK-MEL-28; SNB-75; TK-10; SK-MEL-5; DU-145; T47D.
Holding throughout (experiment): NCI anticancer screen, dose series, 48 h

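48-hour exposure; five concentrations; linearly interpolated endpoints. GI50: concentration for 50% inhibition of growth.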 Calls of active or inactive are those of the source. No stated cut-off is given here; in the data, active = GI50 up to about 1.1 µM and inactive = higher.

`COc1ccc(C2NC(c3ccc(OC)cc3)C(C)C(=O)C2C)cc1` (stereo not drawn): the GI50 in the assay with HCT-15 was more than 100 µM; in the assay on HOP-62, > 100 µM (inactive); with HOP-92, > 100 µM (inactive); in the assay on IGROV-1, > 100 µM (inactive); with Malme-3M, > 100 µM (inactive); with NCI-H23, > 100 µM (inactive). The GI50 was > 100 µM (inactive) with NCI-H522; > 100 µM (inactive) in the assay on OVCAR-3; 34.2 µM (inactive) with RPMI-8226; > 100 µM (inactive) with RXF 393; > 100 µM (inactive) in the assay on SF-295; > 100 µM (inactive) in the assay with SF-539. For the same molecule, the GI50 in the assay with SK-MEL-28 was > 100 µM (inactive); in the assay on SNB-75, 34 µM (inactive); in the assay with TK-10, > 100 µM (inactive).

Regarding `O=C(CC(=O)c1ccccc1)C(=O)NC12CC3CC(CC(C3)C1)C2`, the GI50 in the assay with HCT-15 was more than 37.8 µM; with HOP-62, > 100 µM (inactive); in the assay with HOP-92 it was > 100 µM (inactive); in the assay with IGROV-1, > 100 µM (inactive); in the assay with Malme-3M, > 100 µM (inactive); in the assay with NCI-H23 it was > 100 µM (inactive). In addition, the GI50 was > 83.4 µM (inactive) with NCI-H522; > 100 µM (inactive) with OVCAR-3; > 45.3 µM (inactive) in the assay on RPMI-8226; > 31.9 µM (inactive) in the assay with RXF 393; > 100 µM (inactive) with SF-295; > 100 µM (inactive) with SF-539. Further, the GI50 with SK-MEL-28 was > 100 µM (inactive); with SK-MEL-5, > 100 µM (inactive); in the assay with SNB-75, > 69.7 µM (inactive); in the assay with TK-10, > 100 µM (inactive).

`Cc1cccc(N2C(=O)C(Cl)=C(Cl)C2=O)c1`: the GI50 with HCT-15 was more than 41.7 µM; in the assay with HOP-62 it was > 100 µM (inactive); with HOP-92, > 53.8 µM (inactive); in the assay with IGROV-1, > 100 µM (inactive); in the assay with Malme-3M it was > 42.1 µM (inactive); in the assay on NCI-H23, > 69.2 µM (inactive). Further, the GI50 with NCI-H522 was 8.91 µM (inactive); in the assay on OVCAR-3 it was > 50.6 µM (inactive); in the assay on RPMI-8226 it was > 47.1 µM (inactive); in the assay with RXF 393, 16.5 µM (inactive); with SF-295, > 100 µM (inactive); with SF-539, > 100 µM (inactive). In addition, the GI50 is > 54.5 µM (inactive) in the assay with SK-MEL-28, > 100 µM (inactive) in the assay with SK-MEL-5, > 100 µM (inactive) in the assay with SNB-75 and > 66.8 µM (inactive) with TK-10.

Turning to `CC(C)CCNC(=O)c1ccc(CNC(=O)/C=C/c2ccc3ccccc3c2)cc1`, the GI50 in the assay on DU-145 is > 100 µM (inactive); in the assay on HCT-15 it was more than 100 µM; with HOP-62 it was > 100 µM (inactive); in the assay on HOP-92 it was > 100 µM (inactive); with NCI-H23, > 100 µM (inactive); in the assay with OVCAR-3 it was > 100 µM (inactive). Also, the GI50 with RPMI-8226, in the assay on RXF 393, with SF-295, in the assay on SK-MEL-28, in the assay on SK-MEL-5 and with SNB-75 was > 100 µM (inactive) in each case. Moreover, in the assay on T47D, the GI50 is > 100 µM (inactive).

Take `COc1cc2cnc3c4cc(O)ccc4ccc3c2cc1OC`: the GI50 in the assay with HCT-15 was more than 100 µM; with HOP-62, 36.8 µM (inactive); in the assay with HOP-92 it was > 100 µM (inactive); in the assay with IGROV-1 it was 75.7 µM (inactive); in the assay on Malme-3M it was 51.1 µM (inactive); in the assay on NCI-H23 it was 45.7 µM (inactive). For the same molecule, the GI50 is 15.6 µM (inactive) in the assay with NCI-H522; 17.6 µM (inactive) in the assay on OVCAR-3; > 100 µM (inactive) in the assay on RPMI-8226; 46.5 µM (inactive) with RXF 393; 92.7 µM (inactive) in the assay with SF-295; 63 µM (inactive) in the assay with SF-539. The GI50 is 65.6 µM (inactive) in the assay on SK-MEL-28, > 100 µM (inactive) with SK-MEL-5, 22.6 µM (inactive) in the assay with SNB-75 and > 100 µM (inactive) with TK-10.

`COC(=N)/C(=C1\OC(=N)C(c2ccc(Cl)cc2)=C1O)c1ccc(Cl)cc1`: the GI50 in the assay with HCT-15 was more than 100 µM; with HOP-62, > 100 µM (inactive); in the assay on HOP-92 it was > 100 µM (inactive); with IGROV-1 it was > 100 µM (inactive); in the assay on Malme-3M it was > 100 µM (inactive); in the assay on NCI-H23 it was > 100 µM (inactive). The GI50 with NCI-H522 is > 100 µM (inactive); with OVCAR-3, > 100 µM (inactive); with RPMI-8226, 81.8 µM (inactive); in the assay on RXF 393 it was > 100 µM (inactive); with SF-295 it was > 100 µM (inactive); in the assay with SF-539, > 100 µM (inactive). In addition, the GI50 with SK-MEL-28, with SK-MEL-5, in the assay with SNB-75 and in the assay on TK-10 was > 100 µM (inactive) in each case.

On to `O=C1Nc2ccccc2/C1=N/NC(=S)N1CCCCCC1`, for which the GI50 was 2.2 µM (inactive) in the assay on DU-145; 0.45 µM with HCT-15; 0.242 µM (active) with HOP-62; 1.82 µM (inactive) in the assay with HOP-92; 0.187 µM (active) in the assay on IGROV-1; 0.272 µM (active) in the assay on Malme-3M. The GI50 was 1.21 µM (inactive) in the assay on NCI-H23; 2.47 µM (inactive) with NCI-H522; 0.163 µM (active) in the assay on OVCAR-3; 0.824 µM (active) in the assay with RPMI-8226; 0.644 µM (active) in the assay with RXF 393; 1 µM (active) with SF-295. For the same molecule, the GI50 with SF-539 is 0.168 µM (active); with SK-MEL-28 it was 1.87 µM (inactive); in the assay with SK-MEL-5, 0.0723 µM (active); with SNB-75, 1.69 µM (inactive); with T47D it was 3.78 µM (inactive); in the assay on TK-10, 1.8 µM (inactive).

`CCCCNC(=S)N/C=C1\C(=O)Oc2ccccc2C1=O`: the GI50 in the assay on DU-145 was 99.3 µM (inactive); with HCT-15 it was 48 µM; in the assay on HOP-62, 80.2 µM (inactive); in the assay on HOP-92, > 100 µM (inactive); in the assay on IGROV-1 it was 35.4 µM (inactive); in the assay on NCI-H23, 88.5 µM (inactive). Besides, the GI50 in the assay on OVCAR-3 was > 100 µM (inactive); with SF-295, > 100 µM (inactive); in the assay on SF-539, 98.4 µM (inactive); in the assay with SK-MEL-28 it was 77.8 µM (inactive); in the assay on SK-MEL-5, > 100 µM (inactive); with SNB-75, 2.69 µM (inactive). The GI50 in the assay on T47D was 81.5 µM (inactive); with TK-10 it was > 100 µM (inactive).

Regarding `CCCCC1(OC(=O)CCC(=O)O)CCC2(CCC(C)C(C/C=C(C)/C=C/C(O)C(C)/C=C/C(=O)O)O2)OC1CC/C(C)=C/C(=O)O` (stereo not drawn), the GI50 with HCT-15 was 3.45 µM; in the assay with HOP-62, 2.09 µM (inactive); in the assay with HOP-92, 1.67 µM (inactive); with IGROV-1 it was 1.47 µM (inactive); with Malme-3M it was 7.73 µM (inactive); in the assay with NCI-H23 it was 0.535 µM (active). The GI50 in the assay with NCI-H522 is 2.77 µM (inactive); in the assay on OVCAR-3, 2.64 µM (inactive); in the assay on RPMI-8226, 3.15 µM (inactive); in the assay with RXF 393 it was 1.75 µM (inactive); in the assay on SF-295, 4.57 µM (inactive); in the assay with SF-539, 1.77 µM (inactive). The GI50 in the assay with SK-MEL-28 is 2.02 µM (inactive); in the assay on SK-MEL-5, 1.61 µM (inactive); in the assay on SNB-75, 2.31 µM (inactive); in the assay on TK-10, 17 µM (inactive).

Turning to `O=C(CC(=O)N1N=C(n2ccc3ccccc32)CC1c1ccccc1)Nc1cccc(Cl)c1` (stereo not drawn), the GI50 in the assay on HCT-15 was more than 100 µM; with HOP-62 it was > 100 µM (inactive); with HOP-92, 16 µM (inactive); in the assay on IGROV-1 it was > 100 µM (inactive); with Malme-3M, > 100 µM (inactive); in the assay with NCI-H23, > 100 µM (inactive). In addition, the GI50 in the assay on NCI-H522, in the assay on OVCAR-3, in the assay on RPMI-8226, in the assay on RXF 393, in the assay on SF-295 and in the assay on SF-539 was > 100 µM (inactive) in each case. Moreover, the results for the GI50 in the assay on SK-MEL-28, in the assay with SNB-75 and with TK-10 were > 100 µM (inactive), 60.4 µM (inactive) and > 100 µM (inactive), respectively.

In the case of `COc1ccc(OC)c(NC(=O)C2=C(C)NC(C)=C(C(=O)Nc3cc(OC)ccc3OC)C2c2ccccc2)c1`, the GI50 in the assay on HCT-15 is more than 100 µM; with HOP-62, > 100 µM (inactive); in the assay on HOP-92, 6.41 µM (inactive); with IGROV-1, > 100 µM (inactive); in the assay with Malme-3M, > 100 µM (inactive); in the assay with NCI-H23, > 100 µM (inactive). The GI50 in the assay with NCI-H522 was > 100 µM (inactive); in the assay with OVCAR-3, > 100 µM (inactive); in the assay with RPMI-8226, 4.91 µM (inactive); with RXF 393 it was > 100 µM (inactive); with SF-295, 80.4 µM (inactive); with SF-539, > 100 µM (inactive). Also, the GI50 with SK-MEL-28 was 22.6 µM (inactive); in the assay with SK-MEL-5, 51.3 µM (inactive); in the assay with SNB-75 it was 22.8 µM (inactive); in the assay with TK-10 it was > 100 µM (inactive).

Turning to `O=c1[nH]cc(COCCO)c(=O)[nH]1`, the GI50 was more than 100 µM in the assay with HCT-15; > 100 µM (inactive) with HOP-62; > 100 µM (inactive) in the assay with HOP-92; > 100 µM (inactive) in the assay with IGROV-1; > 100 µM (inactive) with Malme-3M; > 100 µM (inactive) in the assay with NCI-H23. The GI50 with NCI-H522, with OVCAR-3, in the assay on RPMI-8226, in the assay with RXF 393, in the assay with SF-295 and with SF-539 was > 100 µM (inactive) in each case. In addition, the GI50 in the assay on SK-MEL-28, with SK-MEL-5, in the assay on SNB-75 and in the assay on TK-10 was > 100 µM (inactive) in each case.

`Cc1c2ccncc2c(C)c2c1[nH]c1ccc(OCC(F)(F)F)cc12`: the GI50 with HCT-15 was 1.05 µM; in the assay on HOP-62, 1.63 µM (inactive); in the assay with HOP-92 it was 2.23 µM (inactive); with IGROV-1, 1.61 µM (inactive); in the assay with Malme-3M, 1.73 µM (inactive); with NCI-H23 it was 1.71 µM (inactive). Besides, the GI50 with NCI-H522 was 1.65 µM (inactive); in the assay on OVCAR-3 it was 1.85 µM (inactive); with RPMI-8226 it was 2.27 µM (inactive); with RXF 393, 1.9 µM (inactive); with SF-295 it was 1.63 µM (inactive); in the assay on SF-539 it was 1.75 µM (inactive). The GI50 in the assay on SK-MEL-28 is 1.73 µM (inactive); with SK-MEL-5 it was 1.91 µM (inactive); in the assay on SNB-75, 2.17 µM (inactive); in the assay on TK-10, 2.1 µM (inactive).

Source of the values: ChEMBL document CHEMBL1201862, “PubChem BioAssay data set” (2004).
